Measurements published in ChEMBL document CHEMBL5365534, “Discovery of a Novel Ketohexokinase Inhibitor with Improved Drug Distribution in Target Tissue for the Treatment of Fructose Metabolic Disease” (J Med Chem, 2023).
Active and inactive are the calls of the source. No cut-off for these calls is given here.

What was measured:
in vitro [1] = details: mouse, liver microsomes
[2] = MRT (0 to t) in Sprague-Dawley rat at 10 mg/kg, po administered as single dose measured upto 24 hrs by LC-MS/MS analysis; type: ADME, organism-based; details: in vivo
Cytochrome P450 2D6 [3] = molecular target: T1, Cytochrome P450 2D6 (Homo sapiens, UniProt P10635); assay: Time dependent inhibition of CYP2D6 in human liver microsomes at 10 uM preincubated for 30 mins followed by substrate addition and measured after 15 mins in presence of NADPH by LC-MS/MS analysis; type: ADME, Microsome
[4] = molecular target: Voltage-gated inwardly rectifying potassium channel KCNH2 (Homo sapiens, UniProt Q12809)
Description: Inhibition of human ERG expressed in HEK293 cells by manual-patch clamp assay

in vivo [5] = details: Sprague-Dawley, rat, liver/plasma, po, 10 mg/kg
Description: Ratio of drug concentration in Sprague-Dawley rat liver to plasma at 10 mg/kg, po administered as single dose measured upto 24 hrs by LC-MS/MS analysis

in vivo [6] = details: Sprague-Dawley, rat, lung, po, 10 mg/kg
Description: Drug concentration in Sprague-Dawley rat lung at 10 mg/kg, po administered as single dose measured upto 24 hrs by LC-MS/MS analysis

Cytochrome P450 3A4 = Cytochrome P450 3A4 (Homo sapiens, UniProt P08684); assay: Time dependent inhibition of CYP3A4 in human liver microsomes at 10 uM preincubated for 30 mins followed by substrate addition and measured after 15 mins in presence of NADPH by LC-MS/MS analysis; type: ADME, Microsome
[7] = Oral bioavailability in Sprague-Dawley rat at 10 mg/kg administered as single dose measured upto 24 hrs by LC-MS/MS analysis; type: ADME, organism-based; details: in vivo
[8] = Volume of distribution at steady state in Beagle dog at 1 mg/kg, iv administered as single dose measured upto 24 hrs by LC-MS/MS analysis; type: ADME, organism-based, Canis lupus familiaris; details: in vivo, read-out: Vdss
[9] = AUC (0 to t) in Sprague-Dawley rat at 10 mg/kg, iv administered as single dose measured upto 24 hrs by LC-MS/MS analysis; type: ADME, organism-based; design: dose 10 mg/kg, time < 24 hrs, route iv; details: in vivo
in vitro [10] = details: rat, plasma
Description: Fraction unbound in rat plasma

[11] = Cmax in Beagle dog at 5 mg/kg, po administered as single dose measured upto 24 hrs by LC-MS/MS analysis; type: ADME, organism-based, Canis lupus familiaris; design: time < 24 hrs, dose 5 mg/kg, route po; details: in vivo
[12] = AUC (0 to t) in Sprague-Dawley rat at 10 mg/kg, po administered as single dose measured upto 24 hrs by LC-MS/MS analysis; type: ADME, organism-based; design: time < 24 hrs, dose 10 mg/kg, route po; details: in vivo
[13] = Metabolic stability in monkey hepatocyte assessed as parent compound remaining at 10 uM measured after 4 hrs by LC-MS/MS analysis; type: ADME, cell-based, Macaca mulatta; details: rhesus monkey, hepatocytes, read-out: Stability
in vitro [14] = details: human, primary hepatocytes
Description: Toxicity in human Primary hepatocyte incubated for 48 hrs by Celltiter-Glo assay

Rattus norvegicus = assay: In vivo inhibition of KHK in 16 hr fasted Sprague-Dawley rat assessed as inhibition of metabolic clearance of fructose at 50 to 150 mg/kg, po pretreated for 1 hr followed fructose induction and measured after 0.5 to 3 hrs by ELISA method; type: functional, organism-based; details: dose lower 50.0 mg/kg, dose upper […], time upper 4.0 hrs
in vivo [15] = details: Sprague-Dawley, rat, spleen, po, 10 mg/kg
Description: Drug concentration in Sprague-Dawley rat spleen at 10 mg/kg, po administered as single dose measured upto 24 hrs by LC-MS/MS analysis

Cytochrome P450 2C19 = Cytochrome P450 2C19 (Homo sapiens, UniProt P33261); assay: Time dependent inhibition of CYP2C19 in human liver microsomes at 10 uM preincubated for 30 mins followed by substrate addition and measured after 15 mins in presence of NADPH by LC-MS/MS analysis; type: ADME, Microsome
Cytochrome P450 2C9 = Cytochrome P450 2C9 (Homo sapiens, UniProt P11712); assay: Time dependent inhibition of CYP2C9 in human liver microsomes at 10 uM preincubated for 30 mins followed by substrate addition and measured after 15 mins in presence of NADPH by LC-MS/MS analysis; type: ADME, Microsome
[16] = Drug metabolism in rat hepatocytes assessed as oxidation/hydrogenation/decarboxylation metabolite at 10 uM measured upto 240 mins by LC-MS/MS analysis; type: ADME, cell-based, Hepatocyte; details: 4 h
in vivo [17] = details: Sprague-Dawley, rat, heart, po, 10 mg/kg
Description: Drug concentration in Sprague-Dawley rat heart at 10 mg/kg, po administered as single dose measured upto 24 hrs by LC-MS/MS analysis

[18] = Tmax in Beagle dog at 5 mg/kg, po administered as single dose measured upto 24 hrs by LC-MS/MS analysis; type: ADME, organism-based, Canis lupus familiaris; details: in vivo
Cytochrome P450 2D6 [19] = molecular target: T1, Cytochrome P450 2D6
Description: Inhibition of CYP2D6 in human liver microsomes at 0.1 to 30 uM measured for 5 mins in presence of NADPH by LC-MS/MS analysis

Ketohexokinase = molecular target: T2, Ketohexokinase (Homo sapiens, UniProt P50053)
T2 sequence (P50053 whole entry): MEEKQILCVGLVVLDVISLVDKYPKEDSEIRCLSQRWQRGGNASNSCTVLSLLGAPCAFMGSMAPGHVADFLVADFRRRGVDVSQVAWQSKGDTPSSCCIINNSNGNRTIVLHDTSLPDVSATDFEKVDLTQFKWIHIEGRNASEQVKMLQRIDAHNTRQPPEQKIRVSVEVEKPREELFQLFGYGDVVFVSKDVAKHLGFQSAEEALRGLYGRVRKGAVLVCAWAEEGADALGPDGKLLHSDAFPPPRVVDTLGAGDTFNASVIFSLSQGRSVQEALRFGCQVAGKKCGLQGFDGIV
Description: Inhibition of N-terminal his tagged human recombinant KHK-A expressed in Escherichia coli incubated for 60 mins in presence of ATP by ADP Glo assay

[20] = Drug metabolism in monkey hepatocytes assessed as oxidation/hydrogenation/decarboxylation metabolite at 10 uM measured upto 240 mins by LC-MS/MS analysis; type: ADME, cell-based, Macaca mulatta, Hepatocyte; details: rhesus monkey, 4 h
in vitro [21] = details: rhesus monkey, liver microsomes
in vitro [22] = details: dog, hepatocytes
physchem = details: buffer, pH 7.4
[23] = Drug metabolism in mouse hepatocytes assessed as glycine conjugation metabolite at 10 uM measured upto 240 mins by LC-MS/MS analysis; type: ADME, cell-based, Hepatocyte; details: 4 h
[24] = AUC (0 to t) in Beagle dog at 5 mg/kg, po administered as single dose measured upto 24 hrs by LC-MS/MS analysis; type: ADME, organism-based, Canis lupus familiaris; design: dose 5 mg/kg, time < 24 hrs, route po; details: in vivo
[25] = Tmax in Sprague-Dawley rat at 10 mg/kg, po administered as single dose measured upto 24 hrs by LC-MS/MS analysis; type: ADME, organism-based; details: in vivo
[26] = AUC (0 to infinity) in Beagle dog at 5 mg/kg, po administered as single dose measured upto 24 hrs by LC-MS/MS analysis; type: ADME, organism-based, Canis lupus familiaris; design: time < 24 hrs, dose 5 mg/kg, route po; details: in vivo
[27] = Oral bioavailability in Beagle dog at 5 mg/kg administered as single dose measured upto 24 hrs by LC-MS/MS analysis; type: ADME, organism-based, Canis lupus familiaris; details: in vivo
in vitro [28] = details: human, plasma
Description: Fraction unbound in human plasma

[29] = MRT (0 to t) in Beagle dog at 5 mg/kg, po administered as single dose measured upto 24 hrs by LC-MS/MS analysis; type: ADME, organism-based, Canis lupus familiaris; details: in vivo
[30] = Drug metabolism in dog hepatocytes assessed as glucuronidation metabolite at 10 uM measured upto 240 mins by LC-MS/MS analysis; type: ADME, cell-based, Canis lupus familiaris, Hepatocyte; details: 4 h
[31] = Clearance in Sprague-Dawley rat at 10 mg/kg, iv administered as single dose measured upto 24 hrs by LC-MS/MS analysis; type: ADME, organism-based; details: in vivo

T1 sequence (P10635 whole entry): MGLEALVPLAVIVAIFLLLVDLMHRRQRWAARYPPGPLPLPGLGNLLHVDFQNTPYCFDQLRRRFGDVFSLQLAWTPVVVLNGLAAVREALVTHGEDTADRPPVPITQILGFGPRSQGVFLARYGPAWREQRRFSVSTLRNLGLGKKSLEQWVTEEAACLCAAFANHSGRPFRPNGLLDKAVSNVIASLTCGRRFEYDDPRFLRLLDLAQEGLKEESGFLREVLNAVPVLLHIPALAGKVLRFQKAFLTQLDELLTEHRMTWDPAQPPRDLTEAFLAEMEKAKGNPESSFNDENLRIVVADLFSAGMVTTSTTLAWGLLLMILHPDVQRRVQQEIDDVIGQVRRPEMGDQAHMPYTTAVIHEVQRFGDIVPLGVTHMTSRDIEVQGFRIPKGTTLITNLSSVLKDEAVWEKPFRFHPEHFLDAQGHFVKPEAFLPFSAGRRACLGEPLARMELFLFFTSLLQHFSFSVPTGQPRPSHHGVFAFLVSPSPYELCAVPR
Sequence of Cytochrome P450 2C19 (P33261 whole entry): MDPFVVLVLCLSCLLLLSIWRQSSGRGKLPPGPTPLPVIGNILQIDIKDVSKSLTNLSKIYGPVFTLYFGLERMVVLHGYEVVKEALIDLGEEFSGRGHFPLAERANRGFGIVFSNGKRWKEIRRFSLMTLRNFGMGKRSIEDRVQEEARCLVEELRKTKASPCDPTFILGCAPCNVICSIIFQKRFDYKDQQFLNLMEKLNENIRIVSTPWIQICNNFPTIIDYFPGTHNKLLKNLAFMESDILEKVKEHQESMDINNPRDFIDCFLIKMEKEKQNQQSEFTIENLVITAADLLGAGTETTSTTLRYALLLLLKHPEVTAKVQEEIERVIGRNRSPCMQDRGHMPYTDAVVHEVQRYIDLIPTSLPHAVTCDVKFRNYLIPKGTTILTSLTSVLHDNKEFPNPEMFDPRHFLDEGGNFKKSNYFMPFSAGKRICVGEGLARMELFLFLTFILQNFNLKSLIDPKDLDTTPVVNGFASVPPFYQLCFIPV
Sequence of Voltage-gated inwardly rectifying potassium channel KCNH2 (Q12809 whole entry): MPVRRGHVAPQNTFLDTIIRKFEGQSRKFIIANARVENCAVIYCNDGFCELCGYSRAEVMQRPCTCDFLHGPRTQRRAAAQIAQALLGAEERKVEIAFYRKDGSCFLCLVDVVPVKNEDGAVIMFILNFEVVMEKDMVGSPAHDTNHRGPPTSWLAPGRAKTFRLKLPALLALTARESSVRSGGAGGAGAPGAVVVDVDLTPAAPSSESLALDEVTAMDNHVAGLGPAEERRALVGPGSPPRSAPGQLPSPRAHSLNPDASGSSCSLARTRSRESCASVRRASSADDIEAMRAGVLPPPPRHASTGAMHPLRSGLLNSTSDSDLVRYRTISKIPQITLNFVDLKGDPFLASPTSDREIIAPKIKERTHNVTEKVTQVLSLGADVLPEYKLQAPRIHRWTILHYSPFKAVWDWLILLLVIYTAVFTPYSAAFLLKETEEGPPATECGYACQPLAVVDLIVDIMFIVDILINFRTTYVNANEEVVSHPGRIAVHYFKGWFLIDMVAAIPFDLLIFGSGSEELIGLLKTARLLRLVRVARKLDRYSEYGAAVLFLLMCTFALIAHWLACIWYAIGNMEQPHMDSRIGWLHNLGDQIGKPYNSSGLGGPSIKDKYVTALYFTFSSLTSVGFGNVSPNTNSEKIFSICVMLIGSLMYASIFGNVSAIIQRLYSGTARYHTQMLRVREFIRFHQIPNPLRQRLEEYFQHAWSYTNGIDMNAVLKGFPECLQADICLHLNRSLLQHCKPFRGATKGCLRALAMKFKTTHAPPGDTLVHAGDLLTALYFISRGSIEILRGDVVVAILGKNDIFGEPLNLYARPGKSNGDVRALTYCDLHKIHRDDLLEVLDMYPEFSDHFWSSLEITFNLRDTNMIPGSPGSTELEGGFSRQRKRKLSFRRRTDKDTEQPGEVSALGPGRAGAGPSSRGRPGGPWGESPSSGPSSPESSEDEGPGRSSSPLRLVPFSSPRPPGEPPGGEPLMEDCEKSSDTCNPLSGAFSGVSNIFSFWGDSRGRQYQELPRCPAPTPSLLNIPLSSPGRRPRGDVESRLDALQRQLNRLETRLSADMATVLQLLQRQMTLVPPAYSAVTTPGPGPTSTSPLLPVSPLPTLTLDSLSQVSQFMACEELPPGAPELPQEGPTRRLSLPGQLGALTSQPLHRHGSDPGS
Sequence of Cytochrome P450 3A4 (P08684 whole entry): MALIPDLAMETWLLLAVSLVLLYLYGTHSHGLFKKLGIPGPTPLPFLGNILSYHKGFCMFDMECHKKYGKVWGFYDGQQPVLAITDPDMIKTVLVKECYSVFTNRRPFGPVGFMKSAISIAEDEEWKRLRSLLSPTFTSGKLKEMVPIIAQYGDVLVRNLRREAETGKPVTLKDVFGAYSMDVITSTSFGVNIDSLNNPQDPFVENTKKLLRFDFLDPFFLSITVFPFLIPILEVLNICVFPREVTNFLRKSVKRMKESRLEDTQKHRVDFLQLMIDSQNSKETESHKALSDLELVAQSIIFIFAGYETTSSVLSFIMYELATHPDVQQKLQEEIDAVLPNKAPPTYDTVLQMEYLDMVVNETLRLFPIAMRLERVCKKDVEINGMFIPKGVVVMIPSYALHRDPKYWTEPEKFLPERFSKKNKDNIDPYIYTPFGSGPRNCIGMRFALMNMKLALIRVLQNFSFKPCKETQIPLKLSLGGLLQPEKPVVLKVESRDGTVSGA
Sequence of Cytochrome P450 2C9 (P11712 whole entry): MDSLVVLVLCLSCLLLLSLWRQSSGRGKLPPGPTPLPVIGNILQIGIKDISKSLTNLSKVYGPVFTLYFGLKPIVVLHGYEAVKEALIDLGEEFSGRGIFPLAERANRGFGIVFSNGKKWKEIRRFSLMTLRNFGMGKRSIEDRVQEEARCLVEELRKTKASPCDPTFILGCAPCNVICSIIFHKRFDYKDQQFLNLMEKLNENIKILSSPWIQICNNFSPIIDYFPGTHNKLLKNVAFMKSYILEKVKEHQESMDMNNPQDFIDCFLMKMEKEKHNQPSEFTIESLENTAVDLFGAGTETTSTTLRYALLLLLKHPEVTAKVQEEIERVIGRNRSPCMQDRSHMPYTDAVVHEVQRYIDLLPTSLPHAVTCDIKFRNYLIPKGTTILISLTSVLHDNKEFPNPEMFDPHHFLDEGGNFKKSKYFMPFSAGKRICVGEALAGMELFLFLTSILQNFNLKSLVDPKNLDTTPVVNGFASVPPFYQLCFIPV

- microsomal CLint at 2 h, 1 µM (in vitro [1]): 8 µL/min/mg
- MRT last at 24 h [2]: 8.5 h
- IC50 (Cytochrome P450 2D6 [3]): > 10 µM
- Kp at 24 h (in vivo [5]): 9.9
- concentration at 24 h (in vivo [6]): 620 ng/g
- IC50 (Cytochrome P450 3A4): > 10 µM
- bioavailability [7]: 54.6%
- Vd [8]: 0.87 L/kg
- AUCt [9]: 73000 ng·h/mL
- fraction unbound (in vitro [10]): 0.025
- Cmax [11]: 10100 ng/mL
- AUCt [12]: 39900 ng·h/mL
- remaining at 4 h, 10 µM [13]: 95.8%
- IC50 at 48 h (in vitro [14]): > 150 µM
- concentration at 24 h (in vivo [15]): 1140 ng/g
- IC50 (Cytochrome P450 2C19): > 10 µM
- IC50 (Cytochrome P450 2C9): > 10 µM
- Drug metabolism [16]: Metabolite_Notdetected
- concentration at 24 h (in vivo [17]): 1490 ng/g
- Tmax [18]: 0.75 h
- IC50 (Cytochrome P450 2D6 [19]): > 30 µM
- IC50 (Ketohexokinase): 0.0572 µM
- Drug metabolism [20]: Metabolite_Notdetected
- microsomal CLint at 2 h, 1 µM (in vitro [21]): 10.2 µL/min/mg
- hepatocyte CLint at 2 h, 1 µM (in vitro [22]): < 0.96 µL/min/1e6 cells
- logD (physchem): 0.14
- Drug metabolism [23]: Metabolite_Notdetected
- AUCt [24]: 33400 ng·h/mL
- Tmax [25]: 2.33 h
- AUC [26]: 34100 ng·h/mL
- bioavailability [27]: 122%
- fraction unbound (in vitro [28]): 0.089
- MRT last at 24 h [29]: 4.15 h
- Drug metabolism [30]: Metabolite_Notdetected
- clearance [31]: 2.52 mL/min/kg
SMILES: C[C@H]1CCN1c1nc(N2CC[C@H](CCC(=O)O)C2)c2c(n1)C(F)(F)CC2
- IC50 [4]: > 30 µM
- inhibition (Rattus norvegicus): Active
